Reference: US20140113945A1, “Novel Pyrrole Inhibitors of S-Nitrosoglutathione Reductase as Therapeutic Agents for Liver Toxicity” (priority 2011, published 2014)
Like-named read-outs stand apart in the source and are kept apart here. Marks after values point to notes of the source that are not given here.

System: acetaminophen (APAP) induced liver toxicity
Details: for mean ALT / mean AST / increase in ALT compared to control saline group / increase in AST compared to control saline group / reduction in ALT compared to APAP only / reduction in AST compared to APAP only: mice; for mean ALT / mean AST: substance IV + APAP 300 mg/kg PO; for increase in ALT compared to control saline group / increase in AST compared to control saline group / reduction in ALT compared to APAP only / reduction in AST compared to APAP only: substance IV after APAP 300 mg/kg PO, 24-hour; for Alkaline phosphatase (ALK) levels: mouse, in vivo

| SMILES | mean ALT (24-hours post-APAP) | mean AST (24-hours post-APAP) | mean ALT (72-hours post-APAP) | mean AST (72-hours post-APAP) | mean ALT (6 hours post-APAP) | mean AST (6 hours post-APAP) | increase in ALT compared to control saline group | increase in AST compared to control saline group | reduction in ALT compared to APAP only | reduction in AST compared to APAP only | Alkaline phosphatase (ALK) levels |
| --- | --- | --- | --- | --- | --- | --- | --- | --- | --- | --- | --- |
| N[C@@H](CCC(=O)N[C@@H](CSN=O)C(=O)NCC(=O)O)C(=O)O [GSNO, S-nitrosoglutathione] | 1454.3 | 518.0* | 31.8* | 55.0* | 571.8* | 484.5* | ~5 fold | ~4 fold | 76% | 91% | did not significantly differ from normal controls |
| Cc1cc(C(N)=O)ccc1-n1c(CCC(=O)O)ccc1-c1ccc(Cl)cc1O [Compound 41] | 4749.4 | 3783.6 | 97.6 | 492.6 | 3608.0 | 3741.2 | 43 fold | 29 fold | 23% | 34% | did not significantly differ from normal controls |
